Assays:
UO-31 [1] = experiment: Induction of apoptosis in human UO-31 cells assessed as late apoptotic cells at IC50 by Annexin V-FITC/PI staining based flow cytometry analysis (reference value: […]); assay type: functional
UO-31 [2] = experiment: cells; settings: Homo sapiens, UO-31, 24 h
SNB-75 = experiment: cells; settings: Homo sapiens, SNB-75, 24 h
UO-31 [3] = experiment: Induction of cell cycle arrest in human UO-31 cells assessed as accumulation of cells in S phase at 3.61 uM measured after 24 hrs by PI staining based flow cytometry analysis (reference value: 36.42%); assay type: functional
UO-31 [4] = experiment: Induction of apoptosis in human UO-31 cells assessed as fold increase in Bax protein level by ELISA relative to control; assay type: functional
UO-31 [5] = experiment: Induction of cell cycle arrest in human UO-31 cells assessed as cell debris at 3.61 uM measured after 24 hrs by PI staining based flow cytometry analysis (reference value: 2.19%); assay type: functional
HCT-116 = experiment: cells; settings: Homo sapiens, HCT-116, 24 h
UO-31 [6] = assay type: functional, Homo sapiens; settings: dose 3.61 µM; time 24 hrs
[7] = Cytotoxicity against human RPTEC cells assessed as inhibition of cell growth incubated for 24 hrs by MTT assay; assay type: toxicity, cell-based
UO-31 [8] = experiment: Induction of apoptosis in human UO-31 cells assessed as Bax protein level by ELISA (reference value: 70.11 +/- 7.45 pg/ml); assay type: functional
UO-31 [9] = experiment: Induction of cell cycle arrest in human UO-31 cells assessed as cell aggregates at 3.61 uM measured after 24 hrs by PI staining based flow cytometry analysis (reference value: 1.82%); assay type: functional
UO-31 [10] = experiment: cells; settings: Homo sapiens, UO-31, light or radiation study
UO-31 [11] = experiment: Induction of apoptosis in human UO-31 cells assessed as fold decrease in Bcl-2 protein level by ELISA relative to control; assay type: functional
UO-31 [12] = experiment: Induction of apoptosis in human UO-31 cells assessed as increase in caspase-3 level by measuring optical density by Western blot densitometry analysis (reference value: 0.095); assay type: functional
UO-31 [13] = experiment: Induction of apoptosis in human UO-31 cells assessed as early apoptotic cells at IC50 by Annexin V-FITC/PI staining based flow cytometry analysis (reference value: 0.61%); assay type: functional
M14 [14] = experiment: cells; settings: Homo sapiens, M14, light or radiation study
UO-31 [15] = experiment: Induction of cell cycle arrest in human UO-31 cells assessed as accumulation of cells in G0-G1 phase at 3.61 uM measured after 24 hrs by PI staining based flow cytometry analysis (reference value: 49.26%); assay type: functional
M14 [16] = experiment: cells; settings: Homo sapiens, M14, 24 h
UO-31 [17] = experiment: Induction of apoptosis in human UO-31 cells assessed as necrotic cells at IC50 by Annexin V-FITC/PI staining based flow cytometry analysis (reference value: 1.19%); assay type: functional
UO-31 [18] = experiment: Induction of cell cycle arrest in human UO-31 cells assessed as accumulation of cells in G2/M phase at 3.61 uM measured after 24 hrs by PI staining based flow cytometry analysis (reference value: 14.32%); assay type: functional
UO-31 [19] = experiment: Induction of apoptosis in human UO-31 cells assessed as Bcl-2 protein level by ELISA (reference value: 12.19 +/- 0.64 ng/ml); assay type: functional

In the case of `COc1cccc2c1C(=O)c1c(O)c3c(c(O)c1C2=O)C[C@@](O)(C(=O)CO)C[C@@H]3O[C@H]1C[C@H](N)[C@H](O)[C@H](C)O1` [DOXORUBICIN], the Activity (UO-31 [1]) is reported as 26.5%, the IC50 (UO-31 [2]) is reported as 3.61 µM and the IC50 (SNB-75) is reported as 5.82 µM. The Activity (UO-31 [3]) was 48.62%, the “fold change (FC)” value (UO-31 [4]) was 5.59 and the Activity (UO-31 [5]) was 1.66%. For the same compound, the IC50 (HCT-116) was 0.49 µM, the Activity (UO-31 [6]) was 51.66% and the IC50 at 24 h [7] was 12.5 µM. The Activity (UO-31 [8]) was 392.1 pg/mL, the Activity (UO-31 [9]) was 2.13% and the IC50 (UO-31 [10]) was 3.01 µM. For the same compound, the “fold change (FC)” value (UO-31 [11]) was 0.36, the OD (UO-31 [12]) was 0.844 and the Activity (UO-31 [13]) was 14.13%. It also gave an IC50 (M14 [14]) of 2.13 µM, an Activity (UO-31 [15]) of 43.47% and an IC50 (M14 [16]) of 5.11 µM. The Activity (UO-31 [17]) was 11.03%, the Activity (UO-31 [18]) was 7.91% and the Activity (UO-31 [19]) was 4.396 ng/mL.
